# Reference: US20050165029A1, “Pyrrolopyrimidine derivatives and analogs and their use in the treatment and prevention of diseases” (Ambit Biosciences Corporation, priority 2004, published 2005)
# pKd: −log10 of the molar value.
# What was measured:
# FLT3 = target: T1, FLT3 (Homo sapiens, UniProt P36888); test: FLT3(DKIN) phage-display competitive binding assay
# T1 construct: made in house; host or cells: T7 bacteriophage display
# T1 sequence (P36888 27-993): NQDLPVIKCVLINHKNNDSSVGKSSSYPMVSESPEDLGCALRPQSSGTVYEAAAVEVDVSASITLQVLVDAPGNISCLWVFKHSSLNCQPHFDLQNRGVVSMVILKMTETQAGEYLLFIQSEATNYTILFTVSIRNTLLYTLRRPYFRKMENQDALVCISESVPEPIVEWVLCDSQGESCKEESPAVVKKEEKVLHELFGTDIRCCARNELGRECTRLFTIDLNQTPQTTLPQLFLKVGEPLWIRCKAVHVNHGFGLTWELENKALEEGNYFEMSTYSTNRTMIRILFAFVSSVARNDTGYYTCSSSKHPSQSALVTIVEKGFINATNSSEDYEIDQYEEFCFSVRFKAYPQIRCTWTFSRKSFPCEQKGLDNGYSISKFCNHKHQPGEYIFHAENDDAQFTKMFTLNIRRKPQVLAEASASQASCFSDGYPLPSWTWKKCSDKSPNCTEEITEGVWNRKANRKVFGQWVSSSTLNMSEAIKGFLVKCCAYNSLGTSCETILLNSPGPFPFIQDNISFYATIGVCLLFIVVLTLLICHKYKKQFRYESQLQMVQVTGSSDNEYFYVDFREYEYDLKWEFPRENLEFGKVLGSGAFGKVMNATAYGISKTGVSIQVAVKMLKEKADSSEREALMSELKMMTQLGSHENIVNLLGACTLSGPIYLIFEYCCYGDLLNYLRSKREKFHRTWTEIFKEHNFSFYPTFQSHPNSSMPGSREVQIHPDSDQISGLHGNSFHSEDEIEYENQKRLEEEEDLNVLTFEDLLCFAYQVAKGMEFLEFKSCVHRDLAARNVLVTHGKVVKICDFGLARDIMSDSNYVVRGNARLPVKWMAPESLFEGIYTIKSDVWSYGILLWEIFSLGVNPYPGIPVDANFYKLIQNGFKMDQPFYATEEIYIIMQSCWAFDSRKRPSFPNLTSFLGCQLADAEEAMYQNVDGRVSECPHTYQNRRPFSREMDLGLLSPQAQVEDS
# Description: (§1) Methods for measuring binding affinities for interactions between small molecules and kinases including FLT3, c-KIT, ABL(T334I) [a.k.a. ABL(T315I)], VEGFR-2 (a.k.a. KDR), and EGFR are described in detail in U.S. application Ser. No. 10/873,835, which is incorporated by reference herein in its entirety. The components of the assays include human kinases expressed as fusions to T7 bacteriophage particles and immobilized ligands that bind to the ATP site of the kinases. […] If the test compound binds the kinase it competes with the immobilized ligand and prevents binding to the solid support. […] The results are read out by quantitating the amount of fusion protein bound to the solid support, which is accomplished by either traditional phage plaque assays or by quantitative PCR (qPCR) using the phage genome as a template. […] The concentration of test molecule that reduces the number of phage bound to the solid support by 50% is equal to the Kd for the interaction between the kinase and the test molecule. Typically, data are collected for twelve concentrations of test compound and, the resultant binding curve is fit to a non-cooperative binding isotherm to calculate Kd.
# (§2) Described in the exemplary assays below is data from binding with varying kinases. […] The term “ND” represents non-determined values.
# PDGFR-β = target: T2, PDGFR-β (Homo sapiens, UniProt P09619); test: PDGFR-β (DKIN) phage-display competitive binding assay
# T2 construct: made in house; host or cells: T7 bacteriophage display
# Procedure: as §2
# Kd values for the interactions between PDGFR-β and candidate small molecule ligands were measured by a phage-display-based competitive binding assay that is described in detail in U.S. Ser. No. 10/406,797 filed 2 Apr. 2003 and incorporated herein by reference, Briefly, T7 phage displaying human PDGFR-β were incubated with an affinity matrix coated with known PDGFR-β inhibitor in the presence of various concentrations of the soluble competitor molecules. […] The Kd for the interaction between the soluble competitor molecule and PDGFR-β is equal to the concentration of soluble competitor molecule that causes a 50% reduction in the number of phage recovered in the eluate compared to a control sample lacking soluble competitor. Since this assay is generic, and any molecule can be used as a soluble competitor, we have determined Kd values for the interaction between PDGFR-β and several small molecules, including those shown below.
# VEGFR2 = target: T3, VEGFR2 (Homo sapiens, UniProt P35968); test: VEGFR2(DKIN) phage-display competitive binding assay
# T3 construct: made in house; host or cells: T7 bacteriophage display
# Description: as §1, §2
# ABL1 = target: T4, ABL1 (Homo sapiens, UniProt P00519); test: ABL1 phage-display competitive binding assay
# T4 construct: made in house; host or cells: T7 bacteriophage display
# Description: as §1, §2
# MV4,11 cells = test: FLT3 assay using MV4,11 cells (cell proliferation, MTS); assay type: cell-based; settings: Homo sapiens, MV 4,11 cells, 0.5% serum, read-out: (MV 4,11) Cell Proliferation Assay with 0.5% Serum IC50 (nM) “CS0001”
# Procedure: The ability of FLT3 kinase inhibitors to inhibit cellular proliferation was also examined. MV4:11 was a cell line derived from a patient with acute myelogenous leukemia. It expressed a mutant FLT3 protein that was constitutively active. […] Inhibition of FLT3 kinase activity prevented proliferation of these cells, and thus the MV4:11 cell line can be used a model for cellular activity of small molecule inhibitors of FLT3.
# FLT3 assay using MV4,11 cells
# MV4,11 cells were grown in an incubator @ 37° C. in 5% CO2 in Medium 2 (RPMI, 10% FBS, 4 mM glutamine, Penn/Strep). The cells were counted daily and the cell density was kept between 1e5 and 8e5 cells/ml.
# Day One: Enough cells were harvested for experiments to be conducted in 50 ml conical tubes. The harvested cells were spun at 500 g for 5 min at 4° C., the supernatant was then aspirated and the cells were resuspended in the starting volume of 1×PBS. The cells were again spun at 500 g for 5 min at 4° C. and the supernatant again aspirated. […]
# Day Two: The cells were counted and enough medium 3 was added to decrease density to 2e5 cells/ml. 50 ul (10,000 cells) was aliquoted into each well of a 96 well optical plate using multichannel pipetman. The compound plate was then set up by aliquoting 3 μl of negative control (DMSO) into column 1 of a 96 well 300 ul polypropylene plate, aliquoting 3 μl of positive control (10 mM AB20121) into column 12 of plate, and aliquoting 3 μl of appropriate compounds from serial dilutions into columns 2-11. To each well, 150 μl of Medium 3 was added and 50 μl of compound/medium mixture from compound plate into rows of optical plate in duplicate. The cells were then incubated at @ 37° C. in 5% CO2 for 3 days.
# Day Five: MTS was thawed in a H2O bath. 20 μl of MTS was added to each well of optical plate and the cells were incubated @ 37° C. in 5% CO2 for 2 hours. The plate was then placed on a plate shaker for 30 seconds on high speed.
# [1] = target: T5, inactive form of KIT, which contains the autoinhibitory juxtamembrane domain (Homo sapiens, UniProt P10721); test: KIT (DKIN) Binding Assay; settings: inactive form of KIT with autoinhibitory juxtamembrane domain
# T5 construct: made in house; host or cells: T7 bacteriophage display
# Description: as §1, §2
# T3 sequence (P35968 20-1356): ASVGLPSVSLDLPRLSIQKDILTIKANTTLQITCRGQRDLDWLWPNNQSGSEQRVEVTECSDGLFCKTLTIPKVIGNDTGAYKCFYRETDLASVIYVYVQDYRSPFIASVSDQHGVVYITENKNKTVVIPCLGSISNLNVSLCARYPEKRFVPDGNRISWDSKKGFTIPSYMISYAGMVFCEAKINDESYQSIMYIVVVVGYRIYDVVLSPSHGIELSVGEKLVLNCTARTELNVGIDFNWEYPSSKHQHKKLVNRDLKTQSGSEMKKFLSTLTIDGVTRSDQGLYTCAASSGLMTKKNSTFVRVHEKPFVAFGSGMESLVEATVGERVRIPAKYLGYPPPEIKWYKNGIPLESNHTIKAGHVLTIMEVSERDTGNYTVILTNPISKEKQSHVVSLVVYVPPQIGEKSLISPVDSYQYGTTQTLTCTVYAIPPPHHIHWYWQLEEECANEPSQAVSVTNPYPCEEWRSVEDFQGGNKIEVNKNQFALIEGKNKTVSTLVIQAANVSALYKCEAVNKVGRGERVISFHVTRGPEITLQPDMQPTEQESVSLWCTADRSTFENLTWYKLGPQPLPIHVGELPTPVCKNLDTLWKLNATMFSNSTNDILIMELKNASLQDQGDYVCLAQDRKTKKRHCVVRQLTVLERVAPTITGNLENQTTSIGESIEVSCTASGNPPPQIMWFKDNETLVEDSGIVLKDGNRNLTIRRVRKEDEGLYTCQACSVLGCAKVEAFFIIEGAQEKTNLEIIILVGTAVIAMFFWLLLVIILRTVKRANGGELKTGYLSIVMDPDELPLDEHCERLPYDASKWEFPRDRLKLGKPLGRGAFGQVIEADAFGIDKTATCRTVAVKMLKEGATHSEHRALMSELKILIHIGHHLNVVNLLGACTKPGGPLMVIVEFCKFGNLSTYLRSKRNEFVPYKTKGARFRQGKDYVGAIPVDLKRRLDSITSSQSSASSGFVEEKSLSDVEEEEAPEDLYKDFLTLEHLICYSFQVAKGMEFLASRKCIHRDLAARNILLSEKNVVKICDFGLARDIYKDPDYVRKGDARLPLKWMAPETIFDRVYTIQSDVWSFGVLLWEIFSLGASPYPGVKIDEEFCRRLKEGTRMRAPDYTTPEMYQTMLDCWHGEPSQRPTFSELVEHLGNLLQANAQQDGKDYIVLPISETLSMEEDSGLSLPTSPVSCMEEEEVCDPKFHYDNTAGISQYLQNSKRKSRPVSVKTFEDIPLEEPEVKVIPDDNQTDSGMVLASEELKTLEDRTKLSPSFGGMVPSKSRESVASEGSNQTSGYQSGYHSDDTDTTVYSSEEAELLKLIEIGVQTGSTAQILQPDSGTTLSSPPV
# T2 sequence (P09619 33-1106): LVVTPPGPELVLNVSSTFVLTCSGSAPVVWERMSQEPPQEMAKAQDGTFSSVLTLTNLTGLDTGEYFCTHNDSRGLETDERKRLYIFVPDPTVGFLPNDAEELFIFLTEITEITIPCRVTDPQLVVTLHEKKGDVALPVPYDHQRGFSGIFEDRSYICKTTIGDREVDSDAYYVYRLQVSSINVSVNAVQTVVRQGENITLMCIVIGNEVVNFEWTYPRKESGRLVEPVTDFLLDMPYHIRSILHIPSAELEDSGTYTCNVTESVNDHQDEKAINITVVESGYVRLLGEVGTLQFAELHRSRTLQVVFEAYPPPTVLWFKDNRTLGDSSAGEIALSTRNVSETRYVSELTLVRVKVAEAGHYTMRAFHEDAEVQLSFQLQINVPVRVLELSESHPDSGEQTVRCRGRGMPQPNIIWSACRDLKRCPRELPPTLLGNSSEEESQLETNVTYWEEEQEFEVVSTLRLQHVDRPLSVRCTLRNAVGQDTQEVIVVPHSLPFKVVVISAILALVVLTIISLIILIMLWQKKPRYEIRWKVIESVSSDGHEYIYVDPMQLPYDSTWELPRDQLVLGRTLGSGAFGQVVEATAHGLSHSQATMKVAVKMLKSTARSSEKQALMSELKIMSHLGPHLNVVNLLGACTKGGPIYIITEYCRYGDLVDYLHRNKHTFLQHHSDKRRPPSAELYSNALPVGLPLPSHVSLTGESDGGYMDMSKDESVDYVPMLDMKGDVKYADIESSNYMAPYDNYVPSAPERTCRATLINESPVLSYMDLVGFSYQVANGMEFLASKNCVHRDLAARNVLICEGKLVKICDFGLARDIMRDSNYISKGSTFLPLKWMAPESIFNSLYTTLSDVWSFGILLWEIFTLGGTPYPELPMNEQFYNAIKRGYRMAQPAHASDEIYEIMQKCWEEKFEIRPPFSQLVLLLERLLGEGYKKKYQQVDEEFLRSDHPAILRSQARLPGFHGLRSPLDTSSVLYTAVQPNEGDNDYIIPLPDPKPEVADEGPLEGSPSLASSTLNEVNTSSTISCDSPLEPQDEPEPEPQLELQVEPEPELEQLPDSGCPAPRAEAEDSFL
# T4 sequence (P00519 whole entry): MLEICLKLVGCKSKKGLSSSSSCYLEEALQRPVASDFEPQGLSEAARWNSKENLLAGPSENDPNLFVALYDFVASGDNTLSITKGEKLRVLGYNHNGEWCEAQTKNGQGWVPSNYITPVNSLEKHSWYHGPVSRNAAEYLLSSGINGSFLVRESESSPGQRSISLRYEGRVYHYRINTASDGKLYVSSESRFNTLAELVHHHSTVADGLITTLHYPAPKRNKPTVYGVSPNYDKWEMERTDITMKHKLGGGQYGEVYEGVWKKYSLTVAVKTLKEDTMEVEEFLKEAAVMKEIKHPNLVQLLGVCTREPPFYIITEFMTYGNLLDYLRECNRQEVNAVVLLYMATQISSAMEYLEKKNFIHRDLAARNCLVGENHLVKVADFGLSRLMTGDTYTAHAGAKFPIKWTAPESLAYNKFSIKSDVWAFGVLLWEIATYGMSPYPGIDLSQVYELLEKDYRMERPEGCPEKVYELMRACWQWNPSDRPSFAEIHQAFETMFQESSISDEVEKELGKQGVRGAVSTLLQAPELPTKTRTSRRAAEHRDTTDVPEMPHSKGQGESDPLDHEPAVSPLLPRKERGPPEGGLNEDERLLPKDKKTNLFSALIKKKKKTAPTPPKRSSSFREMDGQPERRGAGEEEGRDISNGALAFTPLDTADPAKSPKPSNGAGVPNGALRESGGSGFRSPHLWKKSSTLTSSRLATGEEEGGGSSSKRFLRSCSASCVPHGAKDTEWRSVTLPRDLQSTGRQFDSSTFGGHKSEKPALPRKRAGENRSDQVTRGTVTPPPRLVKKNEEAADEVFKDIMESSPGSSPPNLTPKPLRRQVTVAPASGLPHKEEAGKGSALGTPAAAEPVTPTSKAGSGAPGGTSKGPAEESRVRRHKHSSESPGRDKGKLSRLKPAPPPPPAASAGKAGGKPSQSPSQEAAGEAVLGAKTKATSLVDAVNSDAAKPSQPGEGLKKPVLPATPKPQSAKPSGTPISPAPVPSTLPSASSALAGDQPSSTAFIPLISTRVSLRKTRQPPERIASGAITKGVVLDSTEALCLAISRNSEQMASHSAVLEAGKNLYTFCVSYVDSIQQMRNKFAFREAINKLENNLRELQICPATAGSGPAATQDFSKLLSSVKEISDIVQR
# T5 sequence (P10721 546-976 limits assumed): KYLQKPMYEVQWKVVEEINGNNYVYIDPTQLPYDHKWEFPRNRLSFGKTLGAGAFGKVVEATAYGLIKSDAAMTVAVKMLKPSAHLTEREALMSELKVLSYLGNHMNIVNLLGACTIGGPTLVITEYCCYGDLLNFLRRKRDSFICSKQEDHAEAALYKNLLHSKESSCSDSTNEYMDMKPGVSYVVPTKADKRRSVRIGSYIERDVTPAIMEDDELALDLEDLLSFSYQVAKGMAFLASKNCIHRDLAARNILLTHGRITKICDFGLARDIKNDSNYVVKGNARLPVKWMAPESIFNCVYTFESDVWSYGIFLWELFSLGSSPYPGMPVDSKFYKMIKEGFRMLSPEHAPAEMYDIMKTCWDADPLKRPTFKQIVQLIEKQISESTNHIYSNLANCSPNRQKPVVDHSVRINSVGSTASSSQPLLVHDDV
pKd (FLT3),pKd (PDGFR-β),Compound,other results
5.00 to 6.00,,Cc1ccc(Sc2ncnc3c2cc(-c2ccc(OC(C)C)cc2)n3C(C)C)cc1 [Compound O13],
6.00 to 7.00,,CCOc1ccc(-c2cc3c(Sc4ccccc4)ncnc3n2CC)cc1 [Compound O8],
6.00 to 7.00,5.00 to 6.00,Cc1ccc(Sc2ncnc3[nH]c(-c4ccc(O)cc4)cc23)cc1 [Compound L9],pKd (ABL1): 6.00 to 7.00; pKd (VEGFR2): 6.00 to 7.00
6.00 to 7.00,,CC(C)Oc1ccc(-c2cc3c(Sc4ccccc4)ncnc3n2C(C)C)cc1 [Compound O9],
6.00 to 7.00,,COc1ccc(-c2cc3c(Sc4ccc(C)cc4)ncnc3n2C)cc1 [Compound O11],
6.00 to 7.00,,COc1ccc(-c2cc3c(Sc4ccccc4)ncnc3n2C)cc1 [Compound O7],
5.00 to 6.00,,COc1ccc(-c2cc3c(Sc4ccc(C)cc4)ncnc3n2C(C)C)cc1 [Compound O14],
6.00 to 7.00,,COc1ccc(-c2cc3c(Sc4ccccc4)ncnc3n2C(C)C)cc1 [Compound O10],
6.00 to 7.00,,CCOc1ccc(-c2cc3c(Sc4ccc(C)cc4)ncnc3n2CC)cc1 [Compound O12],

# The remaining lines, values behind:
Compound,pKd (FLT3),pKd (PDGFR-β),other results
COc1ccc(-c2cc3c(Oc4cccc(C)c4)ncnc3[nH]2)cc1 [Compound D8],,5.00 to 6.00,
Oc1ccc(-c2cc3c(Sc4ccc(F)cc4)ncnc3[nH]2)cc1 [Compound L8],,,pKd (VEGFR2): < 5.00
Cc1cccc(Sc2ncnc3[nH]c(-c4ccc(O)cc4)cc23)c1 [Compound L5],,,pKd (VEGFR2): < 5.00
Oc1ccc(-c2cc3c(Sc4ccccc4)ncnc3[nH]2)cc1 [Compound L10],,,pKd (VEGFR2): < 5.00
COc1cccc(Sc2ncnc3[nH]c(-c4ccc(O)cc4)cc23)c1 [Compound L4],,,pKd (ABL1): 6.00 to 7.00; pKd (VEGFR2): 6.00 to 7.00
COc1ccc(-c2cc3c(Oc4ccc(C)cc4)ncnc3[nH]2)cc1 [Compound D14],5.00 to 6.00,5.00 to 6.00,
COc1ccc(-c2cc3c(Sc4ccc(F)c(Cl)c4)ncnc3[nH]2)cc1 [Compound J37],6.00 to 7.00,6.00 to 7.00,"IC50 (MV4,11 cells): 100 to 1000 nM"
COc1ccc(-c2cc3c(Sc4cccc(OC)c4)ncnc3[nH]2)cc1 [Compound J9],,,pKd (ABL1): 6.00 to 7.00
COc1ccc(-c2cc3c(Oc4ccc(F)cc4)ncnc3[nH]2)cc1 [Compound D13],6.00 to 7.00,6.00 to 7.00,
COc1ccc(-c2cc3c(Sc4ccc(Cl)cc4)ncnc3[nH]2)cc1 [Compound J12],,5.00 to 6.00,
COc1ccc(-c2cc3c(Oc4ccc(Cl)cc4)ncnc3[nH]2)cc1 [Compound D11],,6.00 to 7.00,
COc1cccc(Oc2ncnc3[nH]c(-c4ccc(O)cc4)cc23)c1 [Compound E4],,,pKd (VEGFR2): 5.00 to 6.00
COc1ccc(-c2cc3c(Oc4cccc(OC)c4)ncnc3[nH]2)cc1 [Compound D7],,6.00 to 7.00,
COc1ccc(-c2cc3c(Sc4ccc(C)cc4)ncnc3[nH]2)cc1 [Compound J14],,6.00 to 7.00,pKd (VEGFR2): 6.00 to 7.00
"Clc1ccccc1Sc1ncnc2[nH]ccc12 [Compound F1, 4-(2-Chloro-phenylsulfanyl)-7H-pyrrolo[2,3-d]pyrimidine]",< 5.00,,
Clc1ccc(Sc2ncnc3c2[nH]c2ccccc23)cc1Cl [Compound K5],,,"IC50 (MV4,11 cells): > 10000 nM"
COc1ccc(-c2cc3c(Sc4ccccc4)ncnc3[nH]2)cc1 [Compound J16],6.00 to 7.00,6.00 to 7.00,"IC50 (MV4,11 cells): < 100 nM; pKd [1]: 5.00 to 6.00"
COc1cccc(-c2cc3c(Oc4ccc(Cl)cc4)ncnc3[nH]2)c1 [Compound D22],,6.00 to 7.00,
COc1cccc(-c2cc3c(Oc4ccccc4)ncnc3[nH]2)c1 [Compound D24],6.00 to 7.00,5.00 to 6.00,
Cc1ccc(-c2cc3c(Sc4cccc(F)c4)ncnc3[nH]2)cc1 [Compound J17],,,pKd (ABL1): 5.00 to 6.00
COc1ccc(-c2cc3c(Sc4cc(C)cc(C)c4)ncnc3[nH]2)cc1 [Compound J5],< 5.00,,"IC50 (MV4,11 cells): < 100 nM"
Oc1ccc(-c2cc3c(Sc4ccc(Cl)cc4)ncnc3[nH]2)cc1 [Compound L7],,,pKd (VEGFR2): 5.00 to 6.00
COc1cccc(Sc2ncnc3[nH]c(-c4cccc(OC)c4)cc23)c1 [Compound J26],,,pKd (ABL1): 6.00 to 7.00
COc1ccc(-c2cc3c(Sc4ccc(Cl)c(Cl)c4)ncnc3[nH]2)cc1 [Compound J3],,,pKd (ABL1): > 7.00
Cc1cc(C)cc(Sc2ncnc3[nH]c(-c4ccc(O)cc4)cc23)c1 [Compound J18],,,pKd (ABL1): 5.00 to 6.00
